Results: ChEMBL document CHEMBL4196228, “Potential Treatment of Acute Leukemia with Inhibitors of Menin/MLL Interaction” (ACS Med Chem Lett, 2018)

Columns and labels:
[1] = system: MOLM-14; assay: Antiproliferative activity against human MOLM14 cell spheroids; format: functional, cell-based
[2] = biological target: T1, Menin/Histone-lysine N-methyltransferase MLL (Homo sapiens, UniProt O00255); assay: Inhibition of menin-MLL1 (unknown origin) protein-protein interaction by HTRF assay
[3] = system: MV4-11; assay: Antiproliferative activity against human MV411 cell spheroids; format: functional, cell-based
[4] = biological target: T1, Menin/Histone-lysine N-methyltransferase MLL; assay: Inhibition of menin-MLL1 (unknown origin) protein-protein interaction by fluorescence polarization assay

T1 sequence (O00255 whole entry): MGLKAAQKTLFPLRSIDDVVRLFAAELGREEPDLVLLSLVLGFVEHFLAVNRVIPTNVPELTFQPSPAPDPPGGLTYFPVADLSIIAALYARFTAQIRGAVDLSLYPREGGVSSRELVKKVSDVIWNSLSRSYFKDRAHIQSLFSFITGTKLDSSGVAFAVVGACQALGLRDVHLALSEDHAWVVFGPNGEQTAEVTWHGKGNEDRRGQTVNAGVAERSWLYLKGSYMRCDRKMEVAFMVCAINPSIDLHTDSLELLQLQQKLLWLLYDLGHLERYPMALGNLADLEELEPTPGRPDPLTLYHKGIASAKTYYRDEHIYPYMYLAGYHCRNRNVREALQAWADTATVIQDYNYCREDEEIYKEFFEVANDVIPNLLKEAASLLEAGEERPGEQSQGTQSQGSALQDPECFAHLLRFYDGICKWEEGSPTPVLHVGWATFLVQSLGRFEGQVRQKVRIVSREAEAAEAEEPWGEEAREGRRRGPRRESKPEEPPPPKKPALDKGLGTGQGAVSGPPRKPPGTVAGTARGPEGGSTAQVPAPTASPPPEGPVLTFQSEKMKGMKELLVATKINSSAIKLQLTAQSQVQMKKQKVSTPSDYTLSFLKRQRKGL
T1 sequence (Q03164 1-2718 partner limits assumed): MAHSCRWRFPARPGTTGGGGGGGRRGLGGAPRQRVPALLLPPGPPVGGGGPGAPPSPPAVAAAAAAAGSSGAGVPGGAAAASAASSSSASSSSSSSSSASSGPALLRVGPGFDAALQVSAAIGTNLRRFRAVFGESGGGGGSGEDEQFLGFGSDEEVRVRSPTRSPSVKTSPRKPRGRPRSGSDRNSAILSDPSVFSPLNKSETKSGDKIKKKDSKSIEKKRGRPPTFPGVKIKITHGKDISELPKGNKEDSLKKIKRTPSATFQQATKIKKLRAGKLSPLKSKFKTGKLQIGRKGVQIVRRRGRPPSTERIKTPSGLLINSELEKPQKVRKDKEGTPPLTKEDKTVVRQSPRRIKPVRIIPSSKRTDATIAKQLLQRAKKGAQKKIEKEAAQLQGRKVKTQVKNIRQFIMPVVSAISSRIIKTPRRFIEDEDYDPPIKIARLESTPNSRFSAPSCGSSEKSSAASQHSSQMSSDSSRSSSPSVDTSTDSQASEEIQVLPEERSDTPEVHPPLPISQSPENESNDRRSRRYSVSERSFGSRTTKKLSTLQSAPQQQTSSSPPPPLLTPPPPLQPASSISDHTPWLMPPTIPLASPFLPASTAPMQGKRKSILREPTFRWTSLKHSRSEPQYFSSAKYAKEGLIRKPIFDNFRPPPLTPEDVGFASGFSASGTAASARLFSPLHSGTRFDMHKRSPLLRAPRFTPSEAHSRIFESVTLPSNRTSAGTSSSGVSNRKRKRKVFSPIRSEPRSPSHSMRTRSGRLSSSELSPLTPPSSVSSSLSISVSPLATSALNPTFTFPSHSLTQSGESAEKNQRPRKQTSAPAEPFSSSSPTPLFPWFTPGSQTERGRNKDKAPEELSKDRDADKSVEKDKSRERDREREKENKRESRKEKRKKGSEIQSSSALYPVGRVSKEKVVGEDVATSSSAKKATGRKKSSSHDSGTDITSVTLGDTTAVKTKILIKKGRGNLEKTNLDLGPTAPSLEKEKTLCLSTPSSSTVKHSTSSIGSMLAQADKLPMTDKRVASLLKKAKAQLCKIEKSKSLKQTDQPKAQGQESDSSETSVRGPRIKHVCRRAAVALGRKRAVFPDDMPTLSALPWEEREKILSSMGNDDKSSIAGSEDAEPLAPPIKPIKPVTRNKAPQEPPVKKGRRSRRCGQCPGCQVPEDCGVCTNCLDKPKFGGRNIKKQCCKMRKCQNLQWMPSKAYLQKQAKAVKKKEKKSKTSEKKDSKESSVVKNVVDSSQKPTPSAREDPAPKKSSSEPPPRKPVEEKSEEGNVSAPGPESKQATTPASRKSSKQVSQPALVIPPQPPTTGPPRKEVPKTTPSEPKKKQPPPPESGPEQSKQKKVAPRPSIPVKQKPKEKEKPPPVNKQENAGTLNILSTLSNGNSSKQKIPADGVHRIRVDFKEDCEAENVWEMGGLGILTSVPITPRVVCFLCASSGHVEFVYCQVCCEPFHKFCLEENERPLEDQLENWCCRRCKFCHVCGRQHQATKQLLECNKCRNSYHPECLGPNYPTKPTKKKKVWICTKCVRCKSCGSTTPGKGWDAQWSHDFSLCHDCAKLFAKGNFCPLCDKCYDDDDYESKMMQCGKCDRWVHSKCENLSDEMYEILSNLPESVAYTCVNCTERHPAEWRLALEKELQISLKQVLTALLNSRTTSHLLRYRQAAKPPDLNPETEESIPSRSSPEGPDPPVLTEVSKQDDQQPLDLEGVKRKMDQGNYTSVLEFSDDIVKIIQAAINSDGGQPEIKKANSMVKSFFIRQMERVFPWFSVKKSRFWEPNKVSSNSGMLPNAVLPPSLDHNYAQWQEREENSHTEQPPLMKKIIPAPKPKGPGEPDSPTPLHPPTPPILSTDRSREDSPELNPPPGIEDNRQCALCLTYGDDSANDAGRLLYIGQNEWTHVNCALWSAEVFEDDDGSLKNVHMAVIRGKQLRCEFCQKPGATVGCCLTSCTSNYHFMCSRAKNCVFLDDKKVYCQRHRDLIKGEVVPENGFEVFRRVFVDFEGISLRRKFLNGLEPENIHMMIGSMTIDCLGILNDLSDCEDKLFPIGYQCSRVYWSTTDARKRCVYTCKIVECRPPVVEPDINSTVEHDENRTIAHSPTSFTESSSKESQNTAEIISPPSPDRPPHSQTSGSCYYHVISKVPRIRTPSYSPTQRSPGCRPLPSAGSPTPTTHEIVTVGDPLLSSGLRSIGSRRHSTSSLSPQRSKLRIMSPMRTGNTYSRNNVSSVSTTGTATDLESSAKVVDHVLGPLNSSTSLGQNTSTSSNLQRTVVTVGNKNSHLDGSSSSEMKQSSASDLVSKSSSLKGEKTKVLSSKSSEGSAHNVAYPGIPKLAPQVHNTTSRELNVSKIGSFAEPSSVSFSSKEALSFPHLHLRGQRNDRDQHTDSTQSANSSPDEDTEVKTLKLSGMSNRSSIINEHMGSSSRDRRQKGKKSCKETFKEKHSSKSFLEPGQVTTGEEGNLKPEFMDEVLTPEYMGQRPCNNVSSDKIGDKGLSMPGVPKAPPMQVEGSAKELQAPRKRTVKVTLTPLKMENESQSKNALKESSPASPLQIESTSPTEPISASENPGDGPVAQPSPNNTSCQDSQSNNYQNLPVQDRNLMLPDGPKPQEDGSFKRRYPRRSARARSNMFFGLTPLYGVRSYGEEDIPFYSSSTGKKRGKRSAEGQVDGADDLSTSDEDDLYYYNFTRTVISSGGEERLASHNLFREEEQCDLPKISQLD
T1 sequence (Q03164 2719-3969 partner limits assumed): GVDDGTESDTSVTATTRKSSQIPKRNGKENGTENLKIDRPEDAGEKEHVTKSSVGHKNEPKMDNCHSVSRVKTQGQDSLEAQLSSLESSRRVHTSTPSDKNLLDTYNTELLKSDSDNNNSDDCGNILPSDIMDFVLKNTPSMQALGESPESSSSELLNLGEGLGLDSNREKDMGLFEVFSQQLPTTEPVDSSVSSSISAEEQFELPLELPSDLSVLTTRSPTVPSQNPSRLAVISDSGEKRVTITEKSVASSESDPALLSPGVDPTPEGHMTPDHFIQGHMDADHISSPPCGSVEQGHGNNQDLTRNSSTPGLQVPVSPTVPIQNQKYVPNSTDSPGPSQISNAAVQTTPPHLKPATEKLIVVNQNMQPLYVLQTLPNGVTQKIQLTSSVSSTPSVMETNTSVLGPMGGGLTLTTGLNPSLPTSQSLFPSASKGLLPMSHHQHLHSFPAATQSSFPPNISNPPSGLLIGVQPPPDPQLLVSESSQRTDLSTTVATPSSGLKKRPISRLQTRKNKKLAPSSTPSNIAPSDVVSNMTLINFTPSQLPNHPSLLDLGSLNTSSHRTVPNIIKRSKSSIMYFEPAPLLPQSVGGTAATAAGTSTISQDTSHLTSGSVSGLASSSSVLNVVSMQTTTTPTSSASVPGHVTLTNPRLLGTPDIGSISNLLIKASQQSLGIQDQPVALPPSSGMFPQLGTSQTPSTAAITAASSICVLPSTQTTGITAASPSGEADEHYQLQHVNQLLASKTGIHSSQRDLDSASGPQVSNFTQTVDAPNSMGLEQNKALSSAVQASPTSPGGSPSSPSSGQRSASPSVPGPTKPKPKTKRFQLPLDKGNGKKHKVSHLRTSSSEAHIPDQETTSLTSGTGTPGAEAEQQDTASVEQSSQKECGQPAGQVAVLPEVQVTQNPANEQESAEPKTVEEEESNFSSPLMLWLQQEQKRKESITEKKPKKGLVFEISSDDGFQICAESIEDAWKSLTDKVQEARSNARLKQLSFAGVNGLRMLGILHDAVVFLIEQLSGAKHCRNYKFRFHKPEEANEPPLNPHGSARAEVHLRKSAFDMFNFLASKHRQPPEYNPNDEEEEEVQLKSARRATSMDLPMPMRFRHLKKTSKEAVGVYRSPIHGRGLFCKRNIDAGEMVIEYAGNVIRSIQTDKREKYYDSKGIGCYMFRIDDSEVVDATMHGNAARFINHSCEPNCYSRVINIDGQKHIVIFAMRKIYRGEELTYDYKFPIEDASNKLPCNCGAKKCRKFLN

| IC50 [1] [nM] | IC50 [2] [nM] | IC50 [3] [nM] | IC50 [4] [nM] | SMILES |
| --- | --- | --- | --- | --- |
| 860 | 8 | 80 | 21 | CC(C)[C@H](C1CNC1)N1CC2(CCN(c3ncnc4sc(CC(F)(F)F)cc34)C2)C1 |
| 10300 | 190 | 3400 | 110 | CC(C)[C@@H](C1CNC1)N1CC2(CCN(c3ncnc4sc(CC(F)(F)F)cc34)C2)C1 |
| > 15000 | 385 | 2100 | 120 | Cn1cc2c(n1)CCCC2N1CC2(CCN(c3ncnc4sc(CC(F)(F)F)cc34)C2)C1 (centres undefined) |

Continued, molecule first:

| SMILES | IC50 [1] [nM] | IC50 [2] [nM] | IC50 [3] [nM] | IC50 [4] [nM] |
| --- | --- | --- | --- | --- |
| O=C([C@@H]1CC2(CC2)CN1)N1CC2(CCN(c3ncnc4sc(CC(F)(F)F)cc34)C2)C1 | 11300 | 102 | 2600 | 92 |
| FC(F)(F)Cc1cc2c(N3CCCC4(CCN(Cc5ccccc5)C4)C3)ncnc2s1 (centres undefined) | 7700 | 227 | 3900 | 140 |
| FC(F)(F)Cc1cc2c(N3CCC4(CN(Cc5ccccc5)C4)C3)ncnc2s1 | 4600 | 144 | 3700 | 56 |
